# Assay results published in patent US20190256930A1, “BIOMARKERS FOR DETERMINING RESPONSIVENESS TO LSD1 INHIBITORS” (ORYZON GENOMICS, S.A., priority 2016, published 2019).
# Where “and” joins values, the source holds several entries; their conditions need not be identical. Equal values may be shown once.
# Assays:
# Type in all cases: in vivo, human
# [1] = tested on: S100A12, VCAN, ITGAM, LY96, ANXA2, CD86, GPR65, CRISP9, LYZ, and VIM; assay: Correlation of marker gene expression (qRT-PCR, peripheral blood) with response to ORY-1001; conditions: day 5
# Procedure: (§1) An amount of 0.5 micrograms of the 1st strand product was used to perform qRT-PCR reactions in triplicate (Taqman® gene expression assay, Life technologies, see Table 3) in a Roche LightCycler®480. In order to analyze the changes in the expression levels of ANXA2, CAMSAP2, CD86, CRISP9, CTSG, GPR65, ITGAM, LY96, LYZ, S100A12, VCAN, and VIM, ΔΔCp values for a given patient and time point were calculated as described above, relative to the endogenous reference gene HPRT1 and to a control sample obtained from the same patient at pre-dose (i.e. prior to administration of the first dose of ORY-1001 to said patient).
# (§2) For the analysis of the gene expression data, the time point (or time interval) showing the maximum response is typically selected. This time point/interval may change depending on the specific dose, administration scheme, etc. In the present study, all the gene expression and correlation analysis was performed by using the data obtained after administration of day 5, i.e. within the time interval between 98 and 168 h after the first dose. The maximum response observed within this time interval is referred to in the tables herein as “Maximum response (ΔΔCp) on day 5”.
# Possible correlations between expression changes in marker genes described in table 5 and response to ORY-1001 treatment (see Table 2) were investigated.
# The expression levels of Ly96 and ITGAM did additionally correlate with the variation of blast cells in bone marrow (see FIGS. 1A and 1B), particularly in M4/M5 subtypes, further supporting the utility of these marker genes in monitoring response to ORY-1001 treatment in easily accessible samples such as peripheral blood.
# blast cells = assay: Clinical response: morphological blast differentiation and blast counts in smears of bone marrow aspirate and/or peripheral blood, Phase I extension cohort
# Excerpt: As part of a Phase I clinical study assessing the human pharmacokinetics and safety of ORY-1001 in acute leukemia patients, an extension cohort of 14 patients (mean age 57; range 30-78, gender 8M/6F) was opened in order to provide a preliminary assessment of efficacy. A summary of the patients recruited in this extension cohort can be found in Table 1.
# Preliminary clinical efficacy endpoints included (a) morphological blast differentiation and (b) decrease in blast %. In addition, gene expression determinations of selected markers were performed.
# Each patient received ORY-1001 for oral intake as a solution at a dose of 140 microgram/m2/day (as free base) q.d., during 5 consecutive days with 2 days of rest, for 4 cycles (total of 28 days), or until disease progression or unacceptable toxicity was observed.
# For the evaluation of the morphological blast differentiation and blast counts, smears of bone marrow aspirate and/or peripheral blood were prepared, stained by the May-Grünwald-Giemsa method, and microscopically examined in accordance with ICSH guidelines (ICSH guidelines for the standardization of bone marrow specimens and reports, Lee S H, Erber W N, Porwit A, Tomonaga M, Peterson L C; International Council for Standardization In Hematology, International journal of laboratory hematology 2008 October; 30(5):349-64).
# LYZ = assay: Gene expression by qRT-PCR in peripheral blood of acute leukemia patients; conditions: individual patients, within 98 and 168 h after first dose, relative to HPRT1 and pre-dose, negative = up-regulation
# Procedure: (§3) Plasma for pharmacokinetic determinations was separated by centrifugation. The remaining cell volume was resuspended in 2 mL PBS and an aliquot of […] was stabilized in a PAXgene® Blood RNA tube as described by the vendor and kept frozen for subsequent RNA extraction and qRT-PCR.
# (§4) RNA extraction was performed using PAXgene® Blood RNA Kit (PreAnalytix) as described by the vendor. RNA quality was assessed using an Agilent 2100 Bioanalyzer™ and quantity was measured using a NanoDrop™ spectrophotometer.
# (§5) An amount of 0.5 micrograms of total RNA was reverse transcribed to obtain 1st strand cDNA (iScript® Reverse Transcription Supermix for RTqPCR; Bio-Rad).
# (§6) Gene expression was analyzed by qRT-PCR, a variant of the PCR (Polymerase Chain Reaction) method that permits the simultaneous exponential amplification and detection of specific cDNA fragments. Taqman gene expression assays were used, which employ the principle of doubly labeled hydrolysis probes marked with a fluorescent moiety at their 5′ end and with a quencher moiety at the 3′ end, which prevents the generation of fluorescence according to the Förster energy transfer principle.
# (§7) In the exponential phase of the amplification reaction, the intensity of the fluorescence is directly proportional to the quantity of PCR product formed. The LightCycler® 480 Software determines the “crossing point” (Cp), i.e. the point where the reaction's fluorescence reaches the maximum of the second derivative of the amplification curve, which corresponds to the point where the acceleration of the fluorescence signal is at its maximum. The Cp values reflect the target mRNA concentration in the original RNA sample. Differences in Cp values (ΔCp) for a gene X of interest in a given sample relative to a control sample reflect changes in mRNA concentration of the gene X in a given amount of total RNA in the respective sample, and are calculated as:
# (§8) ΔΔCp, gene X=[Cp(sample, gene X)−Cp(sample, reference gene)]−[Cp(control, gene X)−Cp(control, reference gene)]
# (§9) The fold change in mRNA concentration is calculated as 2^−ΔΔCp, a negative ΔΔCp representing an increase in the expression level, and vice versa.
# as §1, §2
# CD86 = assay: as above; conditions: individual patients, within 98 and 168 h after first dose, relative to HPRT1 and pre-dose, negative = up-regulation
# Procedure: as §3, §4, §5, §6, §7, §8, §9, §1, §2
# Ly96 = assay: as above; conditions: individual patients, within 98 and 168 h after first dose, relative to HPRT1 and pre-dose, negative = up-regulation
# Procedure: as §3, §4, §5, §6, §7, §8, §9, §1, §2
# S100A12 [2] = assay: as above; conditions: individual patients, within 98 and 168 h after first dose, relative to HPRT1 and pre-dose, negative = up-regulation
# Procedure: as §3, §4, §5, §6, §7, §8, §9, §1, §2
# ITGAM = assay: as above; conditions: individual patients, within 98 and 168 h after first dose, relative to HPRT1 and pre-dose, negative = up-regulation
# Procedure: as §3, §4, §5, §6, §7, §8, §9, §1, §2
# VCAN = assay: as above; conditions: individual patients, within 98 and 168 h after first dose, relative to HPRT1 and pre-dose, negative = up-regulation
# Procedure: as §3, §4, §5, §6, §7, §8, §9, §1, §2
# CTSG = assay: as above; conditions: individual patients, within 98 and 168 h after first dose, relative to HPRT1 and pre-dose, negative = up-regulation
# Procedure: as §3, §4, §5, §6, §7, §8, §9, §1, §2
# CAMSAP2 = assay: as above; conditions: individual patients, within 98 and 168 h after first dose, relative to HPRT1 and pre-dose, negative = up-regulation
# Procedure: as §3, §4, §5, §6, §7, §8, §9, §1, §2
# GPR65 [3] = assay: as above; conditions: individual patients, within 98 and 168 h after first dose, relative to HPRT1 and pre-dose, negative = up-regulation
# Procedure: as §3, §4, §5, §6, §7, §8, §9, §1, §2
# VIM = assay: as above; conditions: individual patients, within 98 and 168 h after first dose, relative to HPRT1 and pre-dose, negative = up-regulation
# Procedure: as §3, §4, §5, §6, §7, §8, §9, §1, §2
# ANXA2 = assay: as above; conditions: individual patients, within 98 and 168 h after first dose, relative to HPRT1 and pre-dose, negative = up-regulation
# Procedure: as §3, §4, §5, §6, §7, §8, §9, §1, §2
# GPR65 [4] = assay: as above; conditions: individual patients
# S100A12 and VCAN = S100A12 and VCAN gene expression in patients developing a differentiation syndrome; conditions: patients developing a differentiation syndrome (Patients 01 and 09); within 98 and 168 h after the first dose
# Procedure: as §1
# For the analysis of the gene expression data, the time point (or time interval) showing the maximum response is typically selected. This time point/interval may change depending on the specific dose, administration scheme, etc. In the present study, all the gene expression and correlation analysis was performed by using the data obtained after administration of day 5, i.e. within the time interval between 98 and 168 h after the first dose. The maximum response observed within this time interval is referred to in the tables herein as “Maximum response (ΔΔCp) on day 5”. […]
# S100A12 [5] = assay: Gene expression by qRT-PCR in peripheral blood of acute leukemia patients; conditions: individual patients
# [6] = patients showing both blast morphological differentiation and a decrease in blast cells, particularly M4/M5
# [7] = patients showing no morphological differentiation and/or no effect or increase in blast cells
# [8] = peripheral blood and/or bone marrow, extension cohort of 14 patients, all four FAB subtypes
# [9] = within 602 and 768 h after the first administration
# [10] = within first 24 h after the first administration
smiles,measurement,setting,value
"N[C@H]1CC[C@H](N[C@@H]2C[C@H]2c2ccccc2)CC1 [ORY-1001, (trans)-N1-((1R,2S)-2-phenylcyclopropyl)cyclohexane-1,4-diamine]",up-regulation of the gene markers (fold),[1]; [6],1.3 to 550 fold
same,up-regulation of the gene markers (ΔΔCp),[1]; [6],−0.4 to −9.1 ΔΔCp
same,down-regulation of some of the genes (fold change),[1]; [7],0.6 to 0.05 fold
same,down-regulation of some of the genes (ΔΔCp),[1]; [7],0.8 to 4.4 ΔΔCp
same,% Blast variation (peripheral blood),"blast cells; individual patients, peripheral blood, variation of blast % between pre- and post-treatment (day 7 to 29), 140 microgram/m2/day oral",↓ −32% (peripheral blood) and ↓ −55% (peripheral blood) ^e and =(peripheral blood) and ↓ −55% and =
same,patients with decrease in blast cells,blast cells; [8],6/14
same,patients with morphologic blast differentiation,blast cells; [8],5/14
same,"Maximum response (ΔΔCp) on day 5, LYZ",LYZ,2.9 ΔΔCp and 3.2 ΔΔCp and −1.2 ΔΔCp and 1.7 ΔΔCp and −2.3 ΔΔCp and 2.5 ΔΔCp and −2.2 ΔΔCp and −3.9 ΔΔCp and −0.6 ΔΔCp and 2.4 ΔΔCp and 1.2 ΔΔCp
same,"Maximum response (ΔΔCp) on day 5, CD86",CD86,−1.8 ΔΔCp and 2.2 ΔΔCp and 2.5 ΔΔCp and −2.9 ΔΔCp and −3.0 ΔΔCp and −2.0 ΔΔCp and −3.3 ΔΔCp and 0.8 ΔΔCp and −4.4 ΔΔCp and −2.5 ΔΔCp and −2.8 ΔΔCp and 1.3 ΔΔCp
same,"Maximum response (ΔΔCp) on day 5, Ly96",Ly96,−1.6 ΔΔCp and −2.9 ΔΔCp and 2.3 ΔΔCp and −3.3 ΔΔCp and 3.0 ΔΔCp and −4.3 ΔΔCp and −3.1 ΔΔCp and −4.8 ΔΔCp and 2.4 ΔΔCp and −3.2 ΔΔCp and −5.1 ΔΔCp and −4.1 ΔΔCp and −1.5 ΔΔCp
same,"Maximum response (ΔΔCp) on day 5, S100A12",S100A12 [2],−4.5 ΔΔCp and −1.7 ΔΔCp and 1.7 ΔΔCp and 1.3 ΔΔCp and 2.7 ΔΔCp and −5.0 ΔΔCp and 3.0 ΔΔCp and 0.8 ΔΔCp and 2.4 ΔΔCp and 2.0 ΔΔCp and 2.1 ΔΔCp and 3.9 ΔΔCp and −2.1 ΔΔCp
same,"Maximum response (ΔΔCp) on day 5, ITGAM",ITGAM,1.7 ΔΔCp and 1.6 ΔΔCp and 2.1 ΔΔCp and −2.3 ΔΔCp and 3.0 ΔΔCp and 3.1 ΔΔCp and −1.3 ΔΔCp and 3.2 ΔΔCp and −3.0 ΔΔCp and −3.7 ΔΔCp and −2.8 ΔΔCp and 1.8 ΔΔCp
same,"Maximum response (ΔΔCp) on day 5, VCAN",VCAN,2.2 ΔΔCp and 2.0 ΔΔCp and −0.8 ΔΔCp and −9.1 ΔΔCp and 1.8 ΔΔCp and 3.4 ΔΔCp and −2.2 ΔΔCp and −2.1 ΔΔCp and −4.2 ΔΔCp and −1.2 ΔΔCp and 1.6 ΔΔCp and 1.2 ΔΔCp
same,"Maximum response (ΔΔCp) on day 5, CTSG",CTSG,2.3 ΔΔCp and 3.9 ΔΔCp and 3.3 ΔΔCp and 1.8 ΔΔCp and 2.2 ΔΔCp and −1.8 ΔΔCp and 7.6 ΔΔCp and −3.6 ΔΔCp and −1.7 ΔΔCp and −2.5 ΔΔCp and −0.7 ΔΔCp
same,"Maximum response (ΔΔCp) on day 5, CAMSAP2",CAMSAP2,−2.8 ΔΔCp and −1.9 ΔΔCp and 1.2 ΔΔCp and 3.1 ΔΔCp and 1.6 ΔΔCp and −3.7 ΔΔCp and −4.3 ΔΔCp and −2.5 ΔΔCp and −2.3 ΔΔCp and −3.0 ΔΔCp and −2.9 ΔΔCp and −1.4 ΔΔCp
same,"Maximum response (ΔΔCp) on day 5, GPR65",GPR65 [3],−1.8 ΔΔCp and −1.4 ΔΔCp and −1.3 ΔΔCp and −3.8 ΔΔCp and 3.1 ΔΔCp and −0.9 ΔΔCp and 2.3 ΔΔCp and −4.8 ΔΔCp and −3.0 ΔΔCp and −2.3 ΔΔCp and 4.4 ΔΔCp and −1.5 ΔΔCp
same,"Maximum response (ΔΔCp) on day 5, VIM",VIM,−1.2 ΔΔCp and −1.3 ΔΔCp and −0.5 ΔΔCp and 2.2 ΔΔCp and 1.7 ΔΔCp and −2.4 ΔΔCp and −3.4 ΔΔCp and −2.2 ΔΔCp and −0.4 ΔΔCp and 1.3 ΔΔCp and −0.6 ΔΔCp
same,"Maximum response (ΔΔCp) on day 5, ANXA2",ANXA2,2.0 ΔΔCp and −1.1 ΔΔCp and −2.6 ΔΔCp and 1.9 ΔΔCp and −1.9 ΔΔCp and −2.0 ΔΔCp and −3.8 ΔΔCp and −1.6 ΔΔCp and −1.4 ΔΔCp and 3.2 ΔΔCp
same,GPR65 Day 26 maximum response,GPR65 [4]; [9],−3.2 ΔΔCp and −4.8 ΔΔCp
same,GPR65 Day 1 maximum response,GPR65 [4]; [10],2.2 ΔΔCp and −1.1 ΔΔCp
same,S100A12 and VCAN exacerbated up-regulation (fold),S100A12 and VCAN,18 to 550 fold
same,S100A12 and VCAN exacerbated up-regulation (ΔΔCp),S100A12 and VCAN,−4.2 to −9.1 ΔΔCp
same,S100A12 Day 26 maximum response,S100A12 [5]; [9],−7.1 ΔΔCp and −2.8 ΔΔCp
same,S100A12 Day 1 maximum response,S100A12 [5]; [10],−2.1 ΔΔCp and −0.4 ΔΔCp
